The values below come from ChEMBL document CHEMBL4837250, “Discovery of LYC-55716: A Potent, Selective, and Orally Bioavailable Retinoic Acid Receptor-Related Orphan Receptor-γ (RORγ) Agonist for Use in Treating Cancer” (J Med Chem, 2021).

Converted amounts (≈) assume the structure as drawn.

A short description of series [1]: in vivo. The conditions noted are these: CD1, mouse, plasma, po, 10 mg/kg.
Series [2] is described as follows: in vivo. The note with it: CD1, mouse, po, 10 mg/kg.
A short description of series [3]: in vivo. The conditions noted are these: CD1, mouse, po, 10 mg/kg. This is another data set of the same source.
Description: Half life in CD1 mouse at 10 mg/kg, po
A short description of series [4]: in vivo. The note with it: CD1, mouse, po, 10 mg/kg. The source holds these as a separate data set.
Series [5] in a line: in vitro. The note with it: human, hepatocytes.
The target of a further series is CYP3A4 (Homo sapiens, UniProt P08684). In words: in vitro. The conditions noted are these: probe testosterone.
For the next series, the target named is CYP2D6 (Homo sapiens, UniProt P10635). As to the kind of experiment: in vitro. The conditions noted are these: probe testosterone.
The nature of a further series: physchem. The conditions noted are these: PBS buffer, pH 7.4.
The target of series [6] is T1, Nuclear receptor ROR-gamma (Homo sapiens, UniProt P51449).
T1 sequence (P51449 whole entry): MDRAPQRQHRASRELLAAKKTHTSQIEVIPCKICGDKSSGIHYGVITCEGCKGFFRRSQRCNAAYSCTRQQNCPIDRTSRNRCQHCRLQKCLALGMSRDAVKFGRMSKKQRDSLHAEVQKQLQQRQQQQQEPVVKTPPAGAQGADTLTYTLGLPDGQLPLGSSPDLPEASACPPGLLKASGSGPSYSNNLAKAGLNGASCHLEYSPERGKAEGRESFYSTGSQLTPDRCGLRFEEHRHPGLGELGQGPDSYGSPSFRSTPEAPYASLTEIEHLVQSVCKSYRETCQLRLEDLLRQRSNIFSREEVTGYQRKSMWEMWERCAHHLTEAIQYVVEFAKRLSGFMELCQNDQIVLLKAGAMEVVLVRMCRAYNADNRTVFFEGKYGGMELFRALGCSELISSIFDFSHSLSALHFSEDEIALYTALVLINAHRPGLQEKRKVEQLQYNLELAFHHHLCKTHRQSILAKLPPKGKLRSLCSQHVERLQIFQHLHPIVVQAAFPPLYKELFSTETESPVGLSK
Description: Agonist activity at human His-tagged RORgamma-LBD expressed in Sf9 cells assessed as inhibition of N-terminal biotinylated co-activator SRC1 recruitment in presence of ursolic acid measured after 60 mins by FRET assay

Series [7] concerns the target T1, Nuclear receptor ROR-gamma. This is another data set of the same source.
Description: Agonist activity at human ROR-gamma LBD expressed in HEK293 cells assessed as transcriptional activity in presence of ursolic acid by Gal4-luciferase reporter assay
Series [8] has as its target T2, Nuclear receptor subfamily 1 group I member 2 (Homo sapiens, UniProt O75469).
T2 sequence (O75469 whole entry): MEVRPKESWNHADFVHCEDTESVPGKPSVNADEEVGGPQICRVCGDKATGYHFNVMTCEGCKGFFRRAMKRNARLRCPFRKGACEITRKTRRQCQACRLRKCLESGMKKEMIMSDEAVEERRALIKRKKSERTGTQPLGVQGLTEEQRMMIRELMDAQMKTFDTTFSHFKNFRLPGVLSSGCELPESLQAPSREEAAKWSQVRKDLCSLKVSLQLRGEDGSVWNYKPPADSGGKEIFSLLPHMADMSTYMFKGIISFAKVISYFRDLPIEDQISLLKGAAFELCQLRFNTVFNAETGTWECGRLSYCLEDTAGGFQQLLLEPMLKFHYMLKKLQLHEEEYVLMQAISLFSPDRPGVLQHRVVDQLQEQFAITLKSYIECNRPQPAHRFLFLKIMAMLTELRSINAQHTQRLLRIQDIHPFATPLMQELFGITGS
Description: Agonist activity at human PXR-gamma expressed in HEK293 cells assessed as transcriptional activity in presence of ursolic acid by Gal4-luciferase reporter assay

The nature of series [9]: in vitro. The note with it: human, hepatocytes. This is another data set of the same source.
Description: Clearance in human hepatocyte measured per 10^6 cells

Sequence of CYP3A4 (P08684 whole entry): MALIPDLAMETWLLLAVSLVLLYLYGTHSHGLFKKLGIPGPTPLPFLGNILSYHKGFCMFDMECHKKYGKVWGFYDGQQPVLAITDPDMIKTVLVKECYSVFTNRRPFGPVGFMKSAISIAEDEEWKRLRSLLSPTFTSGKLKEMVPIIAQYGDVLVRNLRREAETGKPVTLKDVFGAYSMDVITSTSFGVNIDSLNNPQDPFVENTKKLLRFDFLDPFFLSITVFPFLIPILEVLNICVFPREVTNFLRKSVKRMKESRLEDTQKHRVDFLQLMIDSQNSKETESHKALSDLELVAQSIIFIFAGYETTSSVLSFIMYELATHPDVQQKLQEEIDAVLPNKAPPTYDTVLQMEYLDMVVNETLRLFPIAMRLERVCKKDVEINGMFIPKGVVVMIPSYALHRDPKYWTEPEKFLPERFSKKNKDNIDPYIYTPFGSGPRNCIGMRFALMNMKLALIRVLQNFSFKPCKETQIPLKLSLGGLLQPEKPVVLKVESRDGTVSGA
Sequence of CYP2D6 (P10635 whole entry): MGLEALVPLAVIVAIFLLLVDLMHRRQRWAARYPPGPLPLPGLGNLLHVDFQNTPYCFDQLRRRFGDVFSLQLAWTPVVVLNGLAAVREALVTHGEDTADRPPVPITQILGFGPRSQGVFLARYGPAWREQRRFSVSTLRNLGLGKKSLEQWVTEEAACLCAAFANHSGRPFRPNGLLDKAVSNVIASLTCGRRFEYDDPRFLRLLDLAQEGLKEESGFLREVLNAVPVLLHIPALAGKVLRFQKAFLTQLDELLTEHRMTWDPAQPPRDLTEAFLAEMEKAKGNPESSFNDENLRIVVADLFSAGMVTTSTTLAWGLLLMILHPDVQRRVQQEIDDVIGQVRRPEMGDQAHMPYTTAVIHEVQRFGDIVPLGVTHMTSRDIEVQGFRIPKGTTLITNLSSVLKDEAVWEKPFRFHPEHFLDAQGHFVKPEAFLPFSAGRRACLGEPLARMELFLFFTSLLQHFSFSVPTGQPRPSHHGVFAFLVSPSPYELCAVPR
Description for CYP2D6: Inhibition of CYP2D6 (unknown origin) assessed as oxidation of testosterone at 10 uM
Description for CYP3A4: Inhibition of CYP3A4 (unknown origin) assessed as oxidation of testosterone at 10 uM
Description for physchem: Solubility of the compound in pH 7.4 PBS buffer

`O=C(O)CC[C@H]1CN(S(=O)(=O)c2cccc(C(F)(F)F)c2)c2cc(/C=C/c3c(Cl)cccc3C(F)(F)F)ccc2O1`: the CL/F in “in vivo [1]” was 2 mL/min/kg. In the series “in vivo [2]”, this compound gave an AUC(0-inf) of 71000 ng·h/mL. This compound also showed a half-life in “in vivo [3]” of 221 min. Besides, the bioavailability in “in vivo [4]” was 86%. In the series “in vitro [5]”, the intrinsic clearance (hepatocyte CLint) stood at 20 µL/min/1e6 cells. For the same compound, the inhibition at 10 µM turned out to be 8% at CYP3A4 and 3% against CYP2D6. For the same compound, in the series “physchem”, the solubility amounted to 15 µM (≈ 9.3 µg/mL).

With `O=C(O)C1(C[C@H]2CN(S(=O)(=O)c3cccc(C(F)(F)F)c3)c3cc(-c4cccc(Cl)c4F)ccc3O2)CCOCC1`, the EC50 in series [6] is 24 nM; in series [7], 103 nM; in [8] it was more than 10 µM. Moreover, in the series “in vitro [5]”, the hepatocyte CLint came to 13 µL/min/1e6 cells. Moreover, the inhibition at 10 µM at CYP3A4 was found to be 36%; against CYP2D6 it was 9%. Also, the solubility in the series “physchem” was 93 µM (≈ 57.1 µg/mL).

`CCOc1nn2c(c1S(=O)(=O)N1C[C@H](CCC(=O)O)Oc3ccc(/C=C(\C)c4c(F)cccc4Cl)cc31)CCCC2`: the EC50 was 199 nM in series [7] and more than 10 µM in series [8]. The compound further showed a CL/F in “in vivo [1]” of 7.8 mL/min/kg. The same compound showed an AUC(0-inf) in “in vivo [2]” of 35600 ng·h/mL. In “in vivo [3]”, this compound showed a half-life of 99.6 min. The bioavailability in “in vivo [4]” is 100%. For the same compound, the hepatocyte CLint in the series “in vitro [5]” was determined as 15 µL/min/1e6 cells. The inhibition at 10 µM came to 19% at CYP3A4 and 6% against CYP2D6. For the same compound, in “physchem”, the solubility was 288 µM (≈ 174 µg/mL).

As for `O=C(O)C1(C[C@H]2CN(S(=O)(=O)c3cccc(C(F)(F)F)c3)c3cc(-c4cc(F)cc(OC(F)F)c4)ccc3O2)COC1`, in “in vivo [1]”, the CL/F came to 70.2 mL/min/kg. In the series “in vivo [2]”, the AUC(0-inf) is 1400 ng·h/mL. For the same compound, the half-life in the series “in vivo [3]” was 164 min. In “in vivo [4]”, this compound showed a bioavailability of 59%. The hepatocyte CLint in “in vitro [9]” and in the series “in vitro [5]” was 17 µL/min/1e6 cells each time. This compound gave a solubility in “physchem” of 262 µM (≈ 162 µg/mL).

Regarding `O=C(O)CC[C@H]1CN(S(=O)(=O)c2cccc(C(F)(F)F)c2)c2cc(-c3cc(F)ccc3Cl)ccc2O1`, the EC50 is 145 nM in [6], 124 nM in series [7] and more than 10 µM in [8]. In the series “in vitro [5]”, this compound came in with a hepatocyte CLint of 27 µL/min/1e6 cells. For the same compound, the values for the inhibition at 10 µM against CYP3A4 and against CYP2D6 were 15% and 6%, respectively. The same compound yielded a solubility in “physchem” of 239 µM (≈ 130 µg/mL).

In the case of `O=C(O)CC[C@H]1CN(S(=O)(=O)c2cccc(C(F)(F)F)c2)c2cc(-c3cc(F)ccc3F)ccc2O1`, the EC50 is 8 nM in [6], 181 nM in series [7] and more than 10 µM in series [8]. Also, the hepatocyte CLint in “in vitro [5]” was found to be 31 µL/min/1e6 cells. Moreover, the figures for the inhibition at 10 µM on CYP3A4 and at CYP2D6 were 13% and 1%, respectively. Moreover, the solubility in “physchem” is 227 µM (≈ 120 µg/mL).

Turning to `CC(C)(C[C@H]1CN(S(=O)(=O)c2cccc(C(F)(F)F)c2)c2cc(-c3cc(F)ccc3F)ccc2O1)C(=O)O`, the EC50 is 13 nM in [6], 344 nM in series [7] and more than 10 µM in series [8]. For the same compound, the CL/F in “in vivo [1]” came to 13.2 mL/min/kg. The compound further came in with an AUC(0-inf) in “in vivo [2]” of 9820 ng·h/mL. The half-life in “in vivo [3]” was 441 min. Further, the bioavailability in “in vivo [4]” came out at 78%. Moreover, in the series “in vitro [5]”, the hepatocyte CLint came out at 7.7 µL/min/1e6 cells. For the same compound, the inhibition at 10 µM is 28% against CYP3A4 and 6% on CYP2D6. In the series “physchem”, this compound gave a solubility of 13 µM (≈ 7.22 µg/mL).

`O=C(O)C1(C[C@H]2CN(S(=O)(=O)c3cccc(C(F)(F)F)c3)c3cc(-c4cc(F)ccc4F)ccc3O2)CCOCC1`: the EC50 in series [6] is 5 nM; in series [7], more than 10000 nM; in [8] it was more than 10 µM. Further, in “in vitro [5]”, the hepatocyte CLint was 21 µL/min/1e6 cells. The values for the inhibition at 10 µM against CYP3A4 and on CYP2D6 were 5% and 8%, respectively. Besides, in the series “physchem”, the concentration in solution (solubility) came to 43 µM (≈ 25.7 µg/mL).

As to `O=C(O)C1(C[C@H]2CN(S(=O)(=O)c3cccc(C(F)(F)F)c3)c3cc(-c4cc(F)cc(OC(F)F)c4)ccc3O2)CCOCC1`, the values for the EC50 in series [6], in series [7] and in [8] were 8 nM, 58 nM and 13 µM, respectively. Moreover, the hepatocyte CLint in “in vitro [5]” was 9 µL/min/1e6 cells. The inhibition at 10 µM was -2% on CYP3A4 and 4% against CYP2D6. In “physchem”, this compound returned a solubility of 90 µM (≈ 58.1 µg/mL).

For the compound `O=C(O)CC[C@H]1CN(S(=O)(=O)c2cccc(C(F)(F)F)c2)c2cc(-c3ccccc3Cl)ccc2O1`, the EC50 in [6] was 9 nM; in series [7], 414 nM; in series [8] it was more than 10 µM. The CL/F in “in vivo [1]” was determined as 11.1 mL/min/kg. In the series “in vivo [2]”, this compound returned an AUC(0-inf) of 11700 ng·h/mL. This compound showed a half-life in the series “in vivo [3]” of 266 min. Also, in “in vivo [4]”, the bioavailability is 78%. Besides, the hepatocyte CLint in “in vitro [5]” stood at 32 µL/min/1e6 cells. Besides, the inhibition at 10 µM was found to be 20% against CYP3A4 and 0% against CYP2D6. The concentration in solution in the series “physchem” (solubility) was 243 µM (≈ 128 µg/mL).

In the case of `O=C(O)CC[C@H]1CN(S(=O)(=O)c2cccc(C(F)(F)F)c2)c2cc(-c3cccc(F)c3Cl)ccc2O1`, the EC50 in series [6] was 262 nM; in series [7], 144 nM; in series [8], more than 10 µM. In addition, the CL/F in “in vivo [1]” turned out to be 8.1 mL/min/kg. Also, the AUC(0-inf) in the series “in vivo [2]” amounted to 19600 ng·h/mL. The half-life in “in vivo [3]” was 207 min. The compound further yielded a bioavailability in the series “in vivo [4]” of 95%. In addition, in the series “in vitro [5]”, the hepatocyte CLint came out at 26 µL/min/1e6 cells. Besides, the inhibition at 10 µM against CYP3A4 is 11%; against CYP2D6 it was 6%. In addition, the solubility in “physchem” turned out to be 247 µM (≈ 134 µg/mL).

What is called CL/F is the apparent clearance, not corrected for the fraction that reaches the circulation. As a reminder, the AUC(0-inf) is total exposure, with the tail of the curve extrapolated. A lower AUC(0-inf) goes with less exposure. As a reminder, the half-life is the time in which the quantity being followed falls by half. Higher therefore signals slow decline. In general, bioavailability refers to the share of a dose that reaches the circulation, judged against a reference dose that is usually intravenous. Low values mean poor availability, high ones good availability. A word on the hepatocyte CLint: it is a measure of how fast metabolising enzymes remove a compound, apart from limits set by blood flow. Low values mean greater metabolic stability, high ones faster metabolism. The inhibition is the change of the read-out against control, counted positive when it falls. Broadly, the solubility is how much of the substance goes into solution per volume. Low readings indicate a poorly soluble substance, high ones a readily soluble substance. By EC50 is commonly meant the concentration at which the effect is half-maximal. Read a high EC50 as lower potency in that assay.
